5 molecules from paper PMC10258794, “To Fold or Not to Fold: Diastereomeric Optimization of an α-Helical Antimicrobial Peptide” (Journal of Medicinal Chemistry, 2023) can be followed below.

One data set has as its system human red blood cells. The experiment in a line: Hemolysis assay (MHC). How it is done: To determine the MHC stock solutions, 8 mg/mL peptide in PBS (pH 7.4) was prepared, and 50 μL was diluted serially by l/2 in 50 μL of PBS (pH 7.4) in a 96-well plate (Costar or Nunc, polystyrene, untreated). […] Plasma was discarded, and the pellet was re-suspended in a 15 mL Falcon tube in 5 mL of PBS. The washing was repeated three times, and the remaining pellet was re-suspended in 10 mL of PBS. The hRBC suspension (50 μL) was added to each well, and the plate was incubated at room temperature for 4 h. MHC end points were determined by visual determination of the wells after the incubation period. Controls on each plate included a blank medium control (50 μL PBS + 50 μL of hRBCs suspension) and a hemolytic activity control (mQ-deionized water 50 μL + 50 μL hRBC suspension).

Data set [1] can be described thus: EYPG vesicle leakage assay. It counts as biochemical. The following applies: 10 μg/mL of compound; 10 mM TRIS, 107 mM NaCl, pH 7.4. How it is done: 5(6)-carboxyfluorescein (CF) was purchased from Sigma. EYPC, EYPG, and a Mini-Extruder were purchased from Avanti Polar Lipids. Egg PC or Egg PG thin lipid layers were prepared by evaporating a solution of 100 mg of EYPC or EYPG in 4 mL of MeOH/CHCl3 (1:1) on a rotary evaporator at room temperature and then dried in vacuo overnight. […] Extravesicular components were removed by gel filtration (Sephadex G-50) with 10 mM TRIS, 107 mM NaCl, pH 7.4 buffer. Final conditions: ∼2.5 mM PC or PG; inside: 50 mM CF, 10 mM TRIS, 10 mM NaCl, pH 7.4 buffer; outside: 10 mM TRIS, 107 mM NaCl, pH 7.4. […] The CF efflux was monitored at λem 517 nm (λex 492 nm) as a function of time after addition of the desired volume of peptide from 2 mg/mL stock in mQ water at t = 45 s, 10 and 50 μg/mL were monitored for both EYPC and EYPG. […] Fluorescence intensities were then normalized to the maximal emission intensity using I(t) = (It – I0)/(I∞ – I0) where I0 = It at peptide addition, I∞ = It at saturation of lysis.

Data set [2] is described as follows: EYPC vesicle leakage assay. In kind it is biochemical. The note with it: 10 μg/mL of compound; 10 mM TRIS, 107 mM NaCl, pH 7.4. Put shortly: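 Egg PC or egg PG vesicles (~2.5 mM lipid) were loaded with 50 mM CF in 10 mM TRIS pH 7.4, with 10 mM TRIS/107 mM NaCl outside. Peptide at 10 or 50 μg/mL was added at 45 s, and CF efflux was followed at λex 492/λem 517 nm, normalized to complete lysis.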

A short description of data set [3]: CD spectroscopy, α-helix content. In kind it is physicochemical. The following applies: 5 mM DPC in 7 mM PB buffer pH 7.4, Dichroweb Contin LL set 4. On the procedure: CD experiments were measured on a Jasco J-715 spectropolarimeter. All the experiments were performed using Hellma Suprasil 110-QS 0.1 cm cuvettes. For each peptide, the measurements were performed in phosphate buffer (PB, pH = 7.4, 7 mM), 10% TFE, 20% TFE, 5 mM DPC. The buffer was degassed for 10 min under high vacuum before each set of experiments. The concentration of the peptides was 0.100 mg/mL, and each sample was measured in one accumulation. The scan rate was 20 nm/min, pitch was 0.5 nm, response was 16 s, and bandwidth was 1.0 nm. The nitrogen flow was kept >8 L/min. After each measurement, the cuvettes were washed successively with milli-Q H2O and PB (pH 7.4). The baseline was recorded under the same conditions and subtracted manually. Primary CD spectra were analyzed using DichroWeb[58] and Contin-LL method (set 4).[74]

The test system of another data set is A. baumannii ATCC19606. Put shortly:
(§1)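 Twofold dilution series vs. bacteria (OD600 0.022 dilution, about 5 × 10^5 CFU) in Mueller–Hinton pH 7.4. Incubated 37 °C, 16–20 h, static. MTT added; visual yellow endpoint = MIC.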

In the next data set the test system is E. coli W3110. The method, boiled down: as §1
The next data set concerns K. pneumoniae NCTC418. The method, boiled down:
as §1

In a further data set the test system is P. aeruginosa PAO1. Put shortly:
as §1

Another data set concerns S. aureus COL MRSA. The note with it: for MIC S. aureus COL MRSA: MH broth pH 7.4, 16–20 h, 37 °C. Put shortly: as §1
Data set [4] relates to Pseudomonas aeruginosa, Klebsiella pneumoniae, Acinetobacter baumannii, Escherichia coli, and methicillin-resistant Staphylococcus aureus. The note with it: summary of Table 1. The method, boiled down:
as §1

[5] abbreviates: MH broth pH 7.4, 16–20 h, 37 °C.
[6] abbreviates: supplementary CSV, ranges of Table 1 given as one number.

In brackets after ≈: the same amount, converted by molar mass. Like-named read-outs stand apart in the source and are kept apart here. Non-standard residues stand in square brackets, D forms with d. Residues, ends and D or L forms follow the SMILES beside them. Bounds are passed on as bounds.

H-KKIIKIIKIII-NH2 [HP34]: the “MHC” value in the data set with human red blood cells amounted to 63 µg/mL; with human red blood cells (pH 7.4), 62.5 µg/mL. The “EYPG vesicle leakage (%)” value in data set [1] was found to be 95%. The “EYPC vesicle leakage (%)” value in data set [2] is reported as 10%. The “α-helix content (%)” value in [3] came to 68%. Moreover, the “MIC A. baumannii ATCC19606” value in the data set with A. baumannii ATCC19606 (ATCC19606) is 12 µg/mL; against A. baumannii ATCC19606 (ATCC19606, pH 7.4) it was 8 to 16 µg/mL. For the same molecule, the “MIC E. coli W3110” value against E. coli W3110 (setting [5]) came out at 32 µg/mL. For the same molecule, the “MIC K. pneumoniae NCTC418” value in the data set on K. pneumoniae NCTC418 (setting [5]) and in the data set with K. pneumoniae NCTC418 (NCTC418) was greater than 64 µg/mL in each case. The “MIC P. aeruginosa PAO1” value in the data set on P. aeruginosa PAO1 (setting [5]) is greater than 64 µg/mL. The “MIC S. aureus COL MRSA” value in the data set on S. aureus COL MRSA is greater than 64 µg/mL.

As for H-KKLLKLLKLLLKKLLKLLKLLL-NH2 [2ln65], the “MHC” value with human red blood cells and with human red blood cells (pH 7.4) was less than 15.6 µg/mL throughout. For the same molecule, in data set [1], the “EYPG vesicle leakage (%)” value is 73%. Moreover, the “EYPC vesicle leakage (%)” value in data set [2] is on record as 40%. In addition, the “α-helix content (%)” value in data set [3] came to 91%. The “MIC A. baumannii ATCC19606” value in the data set on A. baumannii ATCC19606 (setting [5]) is greater than 64 µg/mL. In addition, in the data set with E. coli W3110 (setting [5]), the “MIC E. coli W3110” value was greater than 64 µg/mL. For the same molecule, the “MIC K. pneumoniae NCTC418” value in the data set on K. pneumoniae NCTC418 (setting [5]) and with K. pneumoniae NCTC418 (NCTC418) was greater than 64 µg/mL in each case. Besides, in the data set with P. aeruginosa PAO1 (setting [5]), the “MIC P. aeruginosa PAO1” value was greater than 64 µg/mL. Further, the “MIC, span over the five bacterial strains” value in data set [4] is “entirely inactive”. Moreover, the “MIC S. aureus COL MRSA” value against S. aureus COL MRSA is greater than 64 µg/mL.

For the molecule `CC[C@H](C)[C@H](NC(=O)[C@@H](NC(=O)[C@@H](NC(=O)[C@@H](CCCCN)NC(=O)[C@@H](NC(=O)[C@@H](NC(=O)[C@@H](CCCCN)NC(=O)[C@@H](NC(=O)[C@@H](NC(=O)[C@@H](CCCCN)NC(=O)[C@H](N)CCCCN)[C@@H](C)CC)[C@@H](C)CC)[C@@H](C)CC)[C@@H](C)CC)[C@@H](C)CC)[C@@H](C)CC)C(N)=O` [HP35, kkIIkIIkIII] (H-[dK][dK]II[dK]II[dK]III-NH2), the “MHC” value with human red blood cells and with human red blood cells (pH 7.4) was 125 µg/mL in each case. The “EYPG vesicle leakage (%)” value in [1] is 98%. For the same molecule, in data set [2], the “EYPC vesicle leakage (%)” value is 13%. Also, the “α-helix content (%)” value in data set [3] was 22%. Further, the “MIC A. baumannii ATCC19606” value against A. baumannii ATCC19606 (setting [5]) came out at 8 µg/mL (≈ 6.05 µM). Moreover, the “MIC E. coli W3110” value with E. coli W3110 (setting [5]) turned out to be 4 µg/mL (≈ 3.03 µM). The “MIC K. pneumoniae NCTC418” value against K. pneumoniae NCTC418 (setting [5]) is greater than 64 µg/mL. In the data set with P. aeruginosa PAO1 (setting [5]), the “MIC P. aeruginosa PAO1” value worked out at 16 µg/mL (≈ 12.1 µM). Moreover, the “MIC S. aureus COL” value in the data set with S. aureus COL MRSA (COL) is greater than 64 µg/mL. Also, the “MIC S. aureus COL MRSA” value against S. aureus COL MRSA was greater than 64 µg/mL.

With `CC(C)C[C@H](NC(=O)[C@H](CC(C)C)NC(=O)[C@H](CC(C)C)NC(=O)[C@@H](CCCCN)NC(=O)[C@H](CC(C)C)NC(=O)[C@H](CC(C)C)NC(=O)[C@@H](CCCCN)NC(=O)[C@H](CC(C)C)NC(=O)[C@H](CC(C)C)NC(=O)[C@@H](CCCCN)NC(=O)[C@@H](CCCCN)NC(=O)[C@H](CC(C)C)NC(=O)[C@H](CC(C)C)NC(=O)[C@H](CC(C)C)NC(=O)[C@@H](CCCCN)NC(=O)[C@H](CC(C)C)NC(=O)[C@H](CC(C)C)NC(=O)[C@@H](CCCCN)NC(=O)[C@H](CC(C)C)NC(=O)[C@H](CC(C)C)NC(=O)[C@@H](CCCCN)NC(=O)[C@H](N)CCCCN)C(N)=O` [2ln69, (kkLLkLLkLLL)2] (H-[dK][dK]LL[dK]LL[dK]LLL[dK][dK]LL[dK]LL[dK]LLL-NH2), the “MHC” value in the data set with human red blood cells and in the data set with human red blood cells (pH 7.4) was less than 15.6 µg/mL each time. Further, the “EYPG vesicle leakage (%)” value in data set [1] is given as 71%. Besides, in [2], the “EYPC vesicle leakage (%)” value is 74%. Also, in data set [3], the “α-helix content (%)” value stood at 82%. In addition, the “MIC A. baumannii ATCC19606” value in the data set with A. baumannii ATCC19606 (ATCC19606) and with A. baumannii ATCC19606 (setting [5]) was greater than 64 µg/mL in each case. Moreover, the “MIC E. coli W3110” value in the data set on E. coli W3110 (setting [5]) and against E. coli W3110 (setting [6]) was greater than 64 µg/mL in each case. For the same molecule, in the data set with K. pneumoniae NCTC418 (setting [5]), the “MIC K. pneumoniae NCTC418” value is greater than 64 µg/mL. For the same molecule, the “MIC P. aeruginosa PAO1” value against P. aeruginosa PAO1 (setting [5]) and against P. aeruginosa PAO1 (PAO1) was greater than 64 µg/mL throughout. For the same molecule, in data set [4], the “MIC, span over the five bacterial strains” value was “entirely inactive”. For the same molecule, in the data set with S. aureus COL MRSA (COL), the “MIC S. aureus COL” value was greater than 64 µg/mL. Further, the “MIC S. aureus COL MRSA” value in the data set with S. aureus COL MRSA is greater than 64 µg/mL.

For `CC(C)C[C@H](NC(=O)[C@H](CC(C)C)NC(=O)[C@H](CC(C)C)NC(=O)[C@@H](CCCNC(=N)N)NC(=O)[C@H](CC(C)C)NC(=O)[C@H](CC(C)C)NC(=O)[C@@H](CCCNC(=N)N)NC(=O)[C@H](CC(C)C)NC(=O)[C@H](CC(C)C)NC(=O)[C@@H](CCCNC(=N)N)NC(=O)[C@H](N)CCCNC(=N)N)C(N)=O` [HP33, rrLLrLLrLLL] (H-[dR][dR]LL[dR]LL[dR]LLL-NH2), the MHC with human red blood cells (human red blood cells in PBS pH 7.4, 4 h, room temperature) was found to be 125 µg/mL; in the data set with human red blood cells (supplementary CSV, human red blood cells), 125 µg/mL. Also, in [1], the “EYPG vesicle leakage (%)” value is 85%. For the same molecule, the “EYPC vesicle leakage (%)” value in data set [2] turned out to be 56%. The “α-helix content (%)” value in data set [3] is reported as 63%. Further, the “MIC A. baumannii ATCC19606” value against A. baumannii ATCC19606 (setting [5]) came to 4 µg/mL (≈ 2.79 µM). The “MIC E. coli W3110” value in the data set with E. coli W3110 (setting [5]) was 4 to 8 µg/mL; in the data set with E. coli W3110 (setting [6]) it was 6 µg/mL (≈ 4.18 µM). In addition, the “MIC K. pneumoniae NCTC418” value with K. pneumoniae NCTC418 (setting [5]) was 4 to 8 µg/mL; in the data set with K. pneumoniae NCTC418 (setting [6]), 6 µg/mL (≈ 4.18 µM). Besides, the “MIC P. aeruginosa PAO1” value was 4 to 8 µg/mL against P. aeruginosa PAO1 (setting [5]) and 6 µg/mL (≈ 4.18 µM) against P. aeruginosa PAO1 (setting [6]). In the data set with S. aureus COL MRSA, the “MIC S. aureus COL MRSA” value lay within 2 to 4 µg/mL. In addition, the “MIC S. aureus COL” value with S. aureus COL MRSA (setting [6]) turned out to be 3 µg/mL (≈ 2.09 µM).
